Experimental data: patent publication US9850293B2, “Targeting trastuzumab-resistant HER2+ breast cancer with a HER3-targeting nanoparticle” (priority 2014, dated 2017)

Columns and labels:
MDA-MB-231 (HER2−) = test: Targeted toxicity, cell survival by MTT assay; type: cell-based, human; details: 0.5 μM with respect to Dox; HerPBK10 0.1 μM; day 3
Description: (§1) FIG. 7 illustrates targeted toxicity. […] Cell titer was determined by metabolic (i.e. MTT) assay. FIG. 7 upper panel illustrates the effect of HerDox on MDA-MB-231 (HER2−) and MDA-MB-435 (HER2+) cell survival. Relative surviving cell numbers are represented as a % of corresponding untreated cells. […] Relative survival (as % of untreated cells) is shown for Day 3 of treatment.
(§2) N=3. […] Bar, about 4 μm. […] (E) compares HerDox and Dox on off-target tissue. […] Green fluorescence in nuclei indicates apoptosis (positive TUNEL stain).
(§3) By three days, HerDox reduced HER2+ cell numbers by over 75% whereas HER2− cell survival was unaffected (FIG. 7). […] These findings emphasize the importance of targeting by showing that the untargeted drug affects nontarget (i.e. HER2−) cells. […] To test receptor targeting, the inventors used free heregulin ligand (Her or eHRG) as a competitive inhibitor. […] As a final in vitro challenge, the inventors tested whether HerDox induces toxicity specifically to HER2+ cells in a mixed culture of HER2+ and HER2− breast cancer cells. To do this, the inventors produced a HER2− cell line tagged with green fluorescent protein (GFP) for cell identification in the mixed culture (FIG. 9-A). […] Altogether, these findings indicate that HerDox has the capacity to preferentially target toxicity to HER2+ cells. […] In serum-containing media, no such loss from HerDox is detectable. […] Co-migration of HerPBK10 bands further verified that the conjugates remained intact in the cell media.

[1] = Off-target toxicity in treated mice (weight, heart, liver)
Description: Relative cell survival (as % of untreated cells) on day 3 of treatment. (+Her), pre-incubation of MDA-MB-435 cells with receptor-blocking ligand (recombinant heregulin) before receiving HerDox. N=3. […] Tissues were harvested from independently injected mice euthanized at indicated time points after injection and fluorescence intensity/tissue acquired using a multimode imager. […] Bar, about 4 μm. […] Day 0=3 days before tail vein injections (mice received daily injections for 7 days). […] Day 0=3 days before tail vein injections (mice received daily injections for 7 days). […] Micrographs (20× magnification) in (E) also show representative H&E stained specimens of myocardia and immunofluorescent specimens of livers from treated mice. Green fluorescence in nuclei indicates apoptosis (positive TUNEL stain).

MDA-MB-435 cells = test: Intracellular translocation of HerDox and Dox (microscopy); type: cell-based, human
Description: Live (unfixed) cells were imaged by brightfield and fluorescence microscopy.
Live (unfixed) cells were imaged by DIC and confocal fluorescence microscopy.
FIG. 15 illustrates HerDox trafficking in breast cancer cells. Cells incubated with HerDox at 37° C. were fixed at the indicated time points and processed for immunofluorescence using an antibody against HerPBK10. Images were captured using confocal microscopy under fluorescence and brightfield. n, nucleus; Bar, ˜8 microns.

MDA-MB-435 (HER2+) = test: Targeted toxicity, cell survival by MTT assay; type: cell-based, human; details: Dox 0.5 μM; HerPBK10 0.1 μM; day 3
Description: as §1
FIG. 8 illustrates receptor specificity. MDA-MB-435 (HER2+) cells were incubated with free ligand (eHRG) at 10× molar excess of HerDox for one hour at 4° C. Media was aspirated to remove free eHRG and fresh media containing HerDox (0.5 μM) was added to cells. Cell survival was measured by MTT assay and represented as a % of relative untreated cell numbers.
as §2, §3

JIMT-1 cell line = test: Tumor cell killing in culture, pre-existing resistance; type: cell-based, human; details: broad concentration range
Description: N=3. *, p<0.05 compared to parental. […] N=3. […] Treatments were compared to mock (saline)-treatment. […] N=3. *, p<0.05 compared to parental. […] N=3.
(§4) The efficacy of HerDox was also examined on a cell line with pre-existing resistance.
(§5) The contribution of HER3 to targeted toxicity was evaluated by assessing whether pre-adsorbing HerDox with a peptide comprising the ligand-binding domain of HER3 blocked cytotoxicity.

[2] = test system: HER2+ tumors (MDA-MB-435); test: In vivo tumor toxicity (tumor growth); parameters: species or system mouse
HER2+ tumors = test: HerDox and Dox biodistribution (Dox fluorescence imaging); details: tissues harvested ~3 h after injection
Description: FIG. 11 (A) depicts imaging of live mice after IV delivery of HerDox. Tumors are indicated by arrows.

JIMT-1 tumors = test: Trastuzumab-resistant tumor growth in vivo; parameters: species or system mouse; details: 0.004 mg Dox/kg/injection, twice-weekly IV
Description: (§6) Tumor volumes were measured by calipers. Day 0 corresponds to first day of treatment. N=10 tumors per treatment.
as §6, §4, §5

human HER2+ tumor cells = test: HerMn toxicity, crystal violet survival; type: cell-based; details: 24 hours
Description: (§7) Each cell line received the indicated concentration of HerMn or S2Mn and was assessed for survival 24 hours later via crystal violet (CV) stain. N=3 per conc, from 3 separate experiments.

human HER2− tumor cells = test: HerMn toxicity, crystal violet survival; type: cell-based; details: 24 hours
Description: as §7

TSPO = TSPO (Homo sapiens, UniProt P30536); test: S2Ga binding to recombinant TSPO (ultrafiltration, spectra); details: 1 μM
Description: (A) illustrates that S2Ga interacts with TSPO. […] Retentates were evaluated for the presence of protein-bound corrole by measuring the absorbance and fluorescence spectra. Where indicated, PK11195 was used as a competitive inhibitor for the porphyrin binding site on TSPO. (B) further illustrates that S2Ga interacts with TSPO. […] Retentates were evaluated for the presence of protein-bound corrole by measuring the absorbance and fluorescence spectra. Where indicated, PK11195 was used as a competitive inhibitor for the porphyrin binding site on TSPO. […] MDA-MB-435 cells were transfected with a plasmid expressing exogenous TSPO 24 hours before cells were treated with HerGa and examined for HerGa-mediated mitochondrial disruption, evidenced by reduced red fluorescent dye accumulation in mitochondria and accumulated green fluorescence in the cytoplasm.
TSPO translocates porphyrins and other metabolites into mitochondria for processing as well as interacts with components of the mitochondrial permeability transition pore complex, and is critical for cellular homeostasis, as knock-outs of TSPO are embryonic lethal in mice.

SOD1 = test system: SOD1
Description: An in vitro assay measuring superoxide production from XOD−/+SOD.

[3] = T-DM1; untargeted Dox in patients; cited from earlier work

Chain of TSPO (P30536 whole entry): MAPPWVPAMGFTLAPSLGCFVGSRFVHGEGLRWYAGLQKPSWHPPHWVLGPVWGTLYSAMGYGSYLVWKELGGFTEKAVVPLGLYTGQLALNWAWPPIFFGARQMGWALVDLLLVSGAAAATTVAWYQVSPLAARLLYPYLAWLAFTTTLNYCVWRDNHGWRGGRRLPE

For `COc1cccc2c1C(=O)c1c(O)c3c(c(O)c1C2=O)C[C@@](O)(C(=O)CO)C[C@@H]3O[C@H]1C[C@H](N)[C@H](O)[C@H](C)O1` [Dox, doxorubicin, reference compound], the “effect on HER2− cell survival” value (MDA-MB-231 (HER2−)) was “reduced both HER2+ and HER2− cells by the same order of magnitude”, the heart gross appearance ([1]; 25 days following injections) was “slightly enlarged and dilated” and the “myocardium morphology (histochemistry)” value ([1]; 25 days following injections) was “focal degeneration, myofibrillar loss, increased cytosoplasmic vacuolization, and nuclear condensation or dissolution”. For the same molecule, the “cardiac function (echocardiograms)” value ([1]; mouse, in vivo) was “modest to marked reductions in stroke volume, cardiac output, and left ventricular internal dimension and volume”, the “liver and heart toxicity” value ([1]; systemic delivery in vivo) was “causing liver tissue and myocardial damage” and the “intracellular location of Dox fluorescence” value (MDA-MB-435 cells; 0 min of uptake, 0.5 μM) was “already found inside the cell at the nuclear periphery”. The “intranuclear pattern of Dox in live cells” value (MDA-MB-435 cells; confocal, live cells) was “accumulates in the cell nucleus”, the “effect on HER2+ cell survival” value (MDA-MB-435 (HER2+)) was “reduced both HER2+ and HER2− cells by the same order of magnitude” and the “response of JIMT-1 cells” value (JIMT-1 cell line) was “only partially responsive”. The “effect on tumor growth” value ([2]; 0.004 mg/kg with respect to Dox, daily tail vein injections for 7 days) was “slows tumor growth”, the “dose eliciting tumor growth ablation / tumor cell death” value ([2]; mice, dose of Dox) was “more than 0.04 mg/kg” and the fluorescence in kidneys (HER2+ tumors) was “detectable fluorescence”. The fluorescence in liver (HER2+ tumors) was “detectable fluorescence”, the “fluorescence in other tissues (heart, spleen, lungs, skeletal muscle)” value (HER2+ tumors) was “Lower levels of fluorescence were also detectable in the lungs and skeletal muscle” and the fluorescence in tumors (HER2+ tumors) was “detectable fluorescence”. For the same molecule, the “effect on JIMT-1 tumor growth” value (JIMT-1 tumors) was “only slight”.
With “sulfonated manganese(III) corrole [S2Mn]” the “toxicity to HER2+ tumor cells” value (human HER2+ tumor cells) was “no effect on cell survival” and the “toxicity to HER2− tumor cells” value (human HER2− tumor cells) was “no effect on cell survival”.
For sulfonated gallium(III) corrole [S2Ga], the “binding to TSPO with PK11195” value (TSPO) was “competitively inhibited by PK11195” and the “binding to TSPO” value (TSPO; ~20 min, room temperature) was “directly binds”.
With “sulfonated non-metallated free-base corrole [S2FB]” the “inhibition of SOD1” value (SOD1) was “inhibit SOD activity” and the “reduction of SOD activity” value (SOD1; 1 μM) was “about one-third”.
For T-DM1, the therapeutic dose required [3] is listed as “about 3.6 mg/kg”.
